Test system: Hepatitis B virus
Assay: Antiviral activity against HBV infected in human HepG2-NTCP cells assessed as reduction in HBeAg secretion cells inoculated with virus for 4 hrs at room temperature and 37 degree C for 24 hrs followed inoculum changed with PMM medium for every 2 days until day 5 post infection by ELISA
Type: functional, organism-based

IC50 [nM] | SMILES
4960 | CC[C@@H]1NC(=O)[C@H]([C@@H]2O[C@@H](Sc3nccc(C(F)(F)F)n3)C[C@H]2C)N(C)C(=O)[C@H](C(C)C)N(C)C(=O)[C@H](CC(C)C)N(C)C(=O)[C@H](CC(C)C)N(C)C(=O)[C@@H](C)NC(=O)[C@H](C)NC(=O)[C@H](CC(C)C)N(C)C(=O)[C@H](C(C)C)NC(=O)[C@H](CC(C)C)N(C)C(=O)CN(C)C1=O
1650 | CC[C@@H]1NC(=O)[C@H]([C@@H]2O[C@@H](Sc3cccc(O)c3)C[C@H]2C)N(C)C(=O)[C@H](C(C)C)N(C)C(=O)[C@H](CC(C)C)N(C)C(=O)[C@H](CC(C)C)N(C)C(=O)[C@@H](C)NC(=O)[C@H](C)NC(=O)[C@H](CC(C)C)N(C)C(=O)[C@H](C(C)C)NC(=O)[C@H](CC(C)C)N(C)C(=O)CN(C)C1=O
> 10000 | CC[C@@H]1NC(=O)[C@H]([C@@H]2OC(C(C)=O)C[C@H]2C)N(C)C(=O)[C@H](C(C)C)N(C)C(=O)[C@H](CC(C)C)N(C)C(=O)[C@H](CC(C)C)N(C)C(=O)[C@@H](C)NC(=O)[C@H](C)NC(=O)[C@H](CC(C)C)N(C)C(=O)[C@H](C(C)C)NC(=O)[C@H](CC(C)C)N(C)C(=O)CN(C)C1=O (stereo not given in full)
13500 | CC[C@@H]1NC(=O)[C@H]([C@@H]2OC(OC)C[C@H]2C)N(C)C(=O)[C@H](C(C)C)N(C)C(=O)[C@H](CC(C)C)N(C)C(=O)[C@H](CC(C)C)N(C)C(=O)[C@@H](C)NC(=O)[C@H](C)NC(=O)[C@H](CC(C)C)N(C)C(=O)[C@H](C(C)C)NC(=O)[C@H](CC(C)C)N(C)C(=O)CN(C)C1=O (stereo not given in full)
9260 | CC[C@@H]1NC(=O)[C@H]([C@@H]2OC(OCCC(=O)OC)C[C@H]2C)N(C)C(=O)[C@H](C(C)C)N(C)C(=O)[C@H](CC(C)C)N(C)C(=O)[C@H](CC(C)C)N(C)C(=O)[C@@H](C)NC(=O)[C@H](C)NC(=O)[C@H](CC(C)C)N(C)C(=O)[C@H](C(C)C)NC(=O)[C@H](CC(C)C)N(C)C(=O)CN(C)C1=O (stereo not given in full)
> 10000 | CC[C@@H]1NC(=O)[C@H]([C@@H]2OC(C(C)C)C[C@H]2C)N(C)C(=O)[C@H](C(C)C)N(C)C(=O)[C@H](CC(C)C)N(C)C(=O)[C@H](CC(C)C)N(C)C(=O)[C@@H](C)NC(=O)[C@H](C)NC(=O)[C@H](CC(C)C)N(C)C(=O)[C@H](C(C)C)NC(=O)[C@H](CC(C)C)N(C)C(=O)CN(C)C1=O (stereo not given in full)
> 10000 | CC[C@@H]1NC(=O)[C@H]([C@@H]2OCC[C@H]2C)N(C)C(=O)[C@H](C(C)C)N(C)C(=O)[C@H](CC(C)C)N(C)C(=O)[C@H](CC(C)C)N(C)C(=O)[C@@H](C)NC(=O)[C@H](C)NC(=O)[C@H](CC(C)C)N(C)C(=O)[C@H](C(C)C)NC(=O)[C@H](CC(C)C)N(C)C(=O)CN(C)C1=O
> 10000 | CC[C@@H]1NC(=O)[C@H]([C@@H]2OC(OCCC(=O)O)C[C@H]2C)N(C)C(=O)[C@H](C(C)C)N(C)C(=O)[C@H](CC(C)C)N(C)C(=O)[C@H](CC(C)C)N(C)C(=O)[C@@H](C)NC(=O)[C@H](C)NC(=O)[C@H](CC(C)C)N(C)C(=O)[C@H](C(C)C)NC(=O)[C@H](CC(C)C)N(C)C(=O)CN(C)C1=O (stereo not given in full)
> 10000 | C=C(C)C1C[C@@H](C)[C@H]([C@H]2C(=O)N[C@@H](CC)C(=O)N(C)CC(=O)N(C)[C@@H](CC(C)C)C(=O)N[C@@H](C(C)C)C(=O)N(C)[C@@H](CC(C)C)C(=O)N[C@@H](C)C(=O)N[C@H](C)C(=O)N(C)[C@@H](CC(C)C)C(=O)N(C)[C@@H](CC(C)C)C(=O)N(C)[C@@H](C(C)C)C(=O)N2C)O1 (stereo not given in full)
5330 | CC[C@@H]1NC(=O)[C@H]([C@@H]2O[C@H](Sc3ccccc3)C[C@H]2C)N(C)C(=O)[C@H](C(C)C)N(C)C(=O)[C@H](CC(C)C)N(C)C(=O)[C@H](CC(C)C)N(C)C(=O)[C@@H](C)NC(=O)[C@H](C)NC(=O)[C@H](CC(C)C)N(C)C(=O)[C@H](C(C)C)NC(=O)[C@H](CC(C)C)N(C)C(=O)CN(C)C1=O
5780 | C/C=C/C[C@@H](C)[C@@H](O)[C@H]1C(=O)N[C@@H](CC)C(=O)N(C)CC(=O)N(C)[C@@H](CC(C)C)C(=O)N[C@@H](C(C)C)C(=O)N(C)[C@@H](CC(C)C)C(=O)N[C@@H](C)C(=O)N[C@H](C)C(=O)N(C)[C@@H](CC(C)C)C(=O)N(C)[C@@H](CC(C)C)C(=O)N(C)[C@@H](C(C)C)C(=O)N1C [CYCLOSPORINE]
281 | CC[C@@H]1NC(=O)[C@H]([C@@H]2O[C@@H](Sc3ccc(C)cc3)C[C@H]2C)N(C)C(=O)[C@H](C(C)C)N(C)C(=O)[C@H](CC(C)C)N(C)C(=O)[C@H](CC(C)C)N(C)C(=O)[C@@H](C)NC(=O)[C@H](C)NC(=O)[C@H](CC(C)C)N(C)C(=O)[C@H](C(C)C)NC(=O)[C@H](CC(C)C)N(C)C(=O)CN(C)C1=O

The next lines start with the compound.

SMILES | IC50 [nM]
CC[C@@H]1NC(=O)[C@H]([C@@H]2O[C@H](Oc3cccc(OCc4ccccc4)c3)C[C@H]2C)N(C)C(=O)[C@H](C(C)C)N(C)C(=O)[C@H](CC(C)C)N(C)C(=O)[C@H](CC(C)C)N(C)C(=O)[C@@H](C)NC(=O)[C@H](C)NC(=O)[C@H](CC(C)C)N(C)C(=O)[C@H](C(C)C)NC(=O)[C@H](CC(C)C)N(C)C(=O)CN(C)C1=O | 681
CC[C@@H]1NC(=O)[C@H]([C@@H]2O[C@@H](Sc3ccc(CN4CCN(C)CC4)cc3)C[C@H]2C)N(C)C(=O)[C@H](C(C)C)N(C)C(=O)[C@H](CC(C)C)N(C)C(=O)[C@H](CC(C)C)N(C)C(=O)[C@@H](C)NC(=O)[C@H](C)NC(=O)[C@H](CC(C)C)N(C)C(=O)[C@H](C(C)C)NC(=O)[C@H](CC(C)C)N(C)C(=O)CN(C)C1=O | 1540
CC[C@@H]1NC(=O)[C@H]([C@@H]2O[C@@H](Sc3ccc(OCc4ccccc4)cc3)C[C@H]2C)N(C)C(=O)[C@H](C(C)C)N(C)C(=O)[C@H](CC(C)C)N(C)C(=O)[C@H](CC(C)C)N(C)C(=O)[C@@H](C)NC(=O)[C@H](C)NC(=O)[C@H](CC(C)C)N(C)C(=O)[C@H](C(C)C)NC(=O)[C@H](CC(C)C)N(C)C(=O)CN(C)C1=O | 256
CC[C@@H]1NC(=O)[C@H]([C@@H]2O[C@@H](Sc3cccc(OCc4ccccn4)c3)C[C@H]2C)N(C)C(=O)[C@H](C(C)C)N(C)C(=O)[C@H](CC(C)C)N(C)C(=O)[C@H](CC(C)C)N(C)C(=O)[C@@H](C)NC(=O)[C@H](C)NC(=O)[C@H](CC(C)C)N(C)C(=O)[C@H](C(C)C)NC(=O)[C@H](CC(C)C)N(C)C(=O)CN(C)C1=O | 317
CC[C@@H]1NC(=O)[C@H]([C@@H]2O[C@@H](Sc3cccc(OC(C)c4ccccc4)c3)C[C@H]2C)N(C)C(=O)[C@H](C(C)C)N(C)C(=O)[C@H](CC(C)C)N(C)C(=O)[C@H](CC(C)C)N(C)C(=O)[C@@H](C)NC(=O)[C@H](C)NC(=O)[C@H](CC(C)C)N(C)C(=O)[C@H](C(C)C)NC(=O)[C@H](CC(C)C)N(C)C(=O)CN(C)C1=O (stereo not given in full) | 172
CC[C@@H]1NC(=O)[C@H]([C@@H]2O[C@@H](Sc3cccc(OCc4ccc(F)cc4Cl)c3)C[C@H]2C)N(C)C(=O)[C@H](C(C)C)N(C)C(=O)[C@H](CC(C)C)N(C)C(=O)[C@H](CC(C)C)N(C)C(=O)[C@@H](C)NC(=O)[C@H](C)NC(=O)[C@H](CC(C)C)N(C)C(=O)[C@H](C(C)C)NC(=O)[C@H](CC(C)C)N(C)C(=O)CN(C)C1=O | 403
CCCOc1cccc(S[C@H]2C[C@@H](C)[C@H]([C@H]3C(=O)N[C@@H](CC)C(=O)N(C)CC(=O)N(C)[C@@H](CC(C)C)C(=O)N[C@@H](C(C)C)C(=O)N(C)[C@@H](CC(C)C)C(=O)N[C@@H](C)C(=O)N[C@H](C)C(=O)N(C)[C@@H](CC(C)C)C(=O)N(C)[C@@H](CC(C)C)C(=O)N(C)[C@@H](C(C)C)C(=O)N3C)O2)c1 | 223
CC[C@@H]1NC(=O)[C@H]([C@@H]2O[C@@H](Sc3cc(OC)cc(OCc4ccc(F)cc4)c3)C[C@H]2C)N(C)C(=O)[C@H](C(C)C)N(C)C(=O)[C@H](CC(C)C)N(C)C(=O)[C@H](CC(C)C)N(C)C(=O)[C@@H](C)NC(=O)[C@H](C)NC(=O)[C@H](CC(C)C)N(C)C(=O)[C@H](C(C)C)NC(=O)[C@H](CC(C)C)N(C)C(=O)CN(C)C1=O | 216
CC[C@@H]1NC(=O)[C@H]([C@@H]2O[C@@H](Sc3cccc(OCc4ccc(F)c(Cl)c4)c3)C[C@H]2C)N(C)C(=O)[C@H](C(C)C)N(C)C(=O)[C@H](CC(C)C)N(C)C(=O)[C@H](CC(C)C)N(C)C(=O)[C@@H](C)NC(=O)[C@H](C)NC(=O)[C@H](CC(C)C)N(C)C(=O)[C@H](C(C)C)NC(=O)[C@H](CC(C)C)N(C)C(=O)CN(C)C1=O | 335
CC[C@@H]1NC(=O)[C@H]([C@@H]2O[C@@H](Sc3cccc(OCC4CC4)c3)C[C@H]2C)N(C)C(=O)[C@H](C(C)C)N(C)C(=O)[C@H](CC(C)C)N(C)C(=O)[C@H](CC(C)C)N(C)C(=O)[C@@H](C)NC(=O)[C@H](C)NC(=O)[C@H](CC(C)C)N(C)C(=O)[C@H](C(C)C)NC(=O)[C@H](CC(C)C)N(C)C(=O)CN(C)C1=O | 365
CC[C@@H]1NC(=O)[C@H]([C@@H]2O[C@@H](Sc3cccc(OCc4ccc(=O)n(C)c4)c3)C[C@H]2C)N(C)C(=O)[C@H](C(C)C)N(C)C(=O)[C@H](CC(C)C)N(C)C(=O)[C@H](CC(C)C)N(C)C(=O)[C@@H](C)NC(=O)[C@H](C)NC(=O)[C@H](CC(C)C)N(C)C(=O)[C@H](C(C)C)NC(=O)[C@H](CC(C)C)N(C)C(=O)CN(C)C1=O | 480
CC[C@@H]1NC(=O)[C@H]([C@@H]2O[C@@H](Sc3cccc(OCC4CCOCC4)c3)C[C@H]2C)N(C)C(=O)[C@H](C(C)C)N(C)C(=O)[C@H](CC(C)C)N(C)C(=O)[C@H](CC(C)C)N(C)C(=O)[C@@H](C)NC(=O)[C@H](C)NC(=O)[C@H](CC(C)C)N(C)C(=O)[C@H](C(C)C)NC(=O)[C@H](CC(C)C)N(C)C(=O)CN(C)C1=O | 249
CC[C@@H]1NC(=O)[C@H]([C@@H]2O[C@@H](Sc3cccc(OCc4ccccc4F)c3)C[C@H]2C)N(C)C(=O)[C@H](C(C)C)N(C)C(=O)[C@H](CC(C)C)N(C)C(=O)[C@H](CC(C)C)N(C)C(=O)[C@@H](C)NC(=O)[C@H](C)NC(=O)[C@H](CC(C)C)N(C)C(=O)[C@H](C(C)C)NC(=O)[C@H](CC(C)C)N(C)C(=O)CN(C)C1=O | 318

Source: ChEMBL document CHEMBL4706643 (J Med Chem, 2021)
